According to ChEMBL document CHEMBL1121648, “Metabolism of 1,3-bis(2-chloroethyl)-1-nitrosourea by rat hepatic microsomes” (J Med Chem, 1981):

Tests used:
Rattus norvegicus = organism: Rattus norvegicus; assay: NADPH-dependent metabolic rate was measured in rat liver microsomal preparations; format: functional
[1] = Half-life for disappearance of compound measured at 37 degree C and pH 7.4 in rat liver microsomal preparations; format: ADME; details: liver microsomes

O=C(NCCCl)NCCCl
Rate (nM (mg of protein)-1) (Rattus norvegicus): 54

O=NN(CCCl)C(=O)NCCCl [CARMUSTINE]
Rate (nM (mg of protein)-1) (Rattus norvegicus): 56 | half-life [1]: 1.5 h
